Measured values: publication PMC6345859, “Copper amine oxidases catalyze the oxidative deamination and hydrolysis of cyclic imines” (Nature Communications, 2019)
Changes are numbered by the printed parent chain.

Legend:
[1] = biological target: T1, HarA (harmaline-metabolizing enzyme, copper amine oxidase) (Arthrobacter sp., UniProt A0A5A4PV14); assay: LC/MS/MS of chymotryptic nonapeptide; phenylhydrazine titration; format: binding; conditions: covalent; adduct with TPQ cofactor (Y379); […] Tris-HCl pH […] digest
T1 construct: purified from strain C-4A, or recombinant from E. coli BL21-CodonPlus(DE3)-RIL (pETDuet-harA); 71 kDa subunit, 130 kDa native, homodimer; TPQ cofactor from Y379, Cu2+
T1 sequence (A0A5A4PV14 1-649): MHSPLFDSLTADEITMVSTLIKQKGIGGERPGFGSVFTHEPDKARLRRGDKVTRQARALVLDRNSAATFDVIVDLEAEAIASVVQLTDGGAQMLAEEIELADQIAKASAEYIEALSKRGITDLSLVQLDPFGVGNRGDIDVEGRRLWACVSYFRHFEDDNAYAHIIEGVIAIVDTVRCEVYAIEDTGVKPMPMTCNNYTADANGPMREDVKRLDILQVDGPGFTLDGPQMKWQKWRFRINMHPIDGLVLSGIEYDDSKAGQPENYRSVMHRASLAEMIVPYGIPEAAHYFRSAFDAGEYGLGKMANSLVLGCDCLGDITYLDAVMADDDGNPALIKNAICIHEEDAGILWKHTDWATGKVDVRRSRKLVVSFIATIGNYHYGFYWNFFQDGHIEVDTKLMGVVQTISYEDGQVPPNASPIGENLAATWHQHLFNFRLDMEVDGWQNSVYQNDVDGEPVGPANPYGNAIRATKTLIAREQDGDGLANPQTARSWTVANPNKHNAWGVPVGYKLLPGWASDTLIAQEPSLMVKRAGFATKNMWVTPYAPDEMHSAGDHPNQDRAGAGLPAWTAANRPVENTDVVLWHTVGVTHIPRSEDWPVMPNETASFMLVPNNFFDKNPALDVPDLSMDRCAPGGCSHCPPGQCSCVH

[2] = biological target: T1, HarA (harmaline-metabolizing enzyme, copper amine oxidase); assay: resonance Raman and anaerobic UV-vis spectroscopy; format: binding; conditions: covalent imine adduct with TPQ, difference against Y379F
[3] = biological target: T2, HarA (harmaline-metabolizing enzyme, copper amine oxidase) (Arthrobacter sp., UniProt A0A5A4PV14, D295E); assay: LC/MS product detection; format: biochemical; conditions: […] Hepes-NaOH pH […] °C
T2 construct: purified from strain C-4A, or recombinant from E. coli BL21-CodonPlus(DE3)-RIL (pETDuet-harA); 71 kDa subunit, 130 kDa native, homodimer; TPQ cofactor from Y379, Cu2+
T2 sequence (A0A5A4PV14 1-649 D295E): T1 sequence (A0A5A4PV14 1-649) with D295E

[4] = biological target: T3, ECAO (copper amine oxidase from E. coli) (Escherichia coli, UniProt P46883); assay: LC/MS or HPLC product detection; format: biochemical; conditions: 0.5 mg/mL enzyme
T3 construct: gene tynA; recombinant, pET24a(+)-tynA in E. coli BL21-CodonPlus(DE3)-RIL, purified; TPQ cofactor
T3 sequence (P46883 31-757): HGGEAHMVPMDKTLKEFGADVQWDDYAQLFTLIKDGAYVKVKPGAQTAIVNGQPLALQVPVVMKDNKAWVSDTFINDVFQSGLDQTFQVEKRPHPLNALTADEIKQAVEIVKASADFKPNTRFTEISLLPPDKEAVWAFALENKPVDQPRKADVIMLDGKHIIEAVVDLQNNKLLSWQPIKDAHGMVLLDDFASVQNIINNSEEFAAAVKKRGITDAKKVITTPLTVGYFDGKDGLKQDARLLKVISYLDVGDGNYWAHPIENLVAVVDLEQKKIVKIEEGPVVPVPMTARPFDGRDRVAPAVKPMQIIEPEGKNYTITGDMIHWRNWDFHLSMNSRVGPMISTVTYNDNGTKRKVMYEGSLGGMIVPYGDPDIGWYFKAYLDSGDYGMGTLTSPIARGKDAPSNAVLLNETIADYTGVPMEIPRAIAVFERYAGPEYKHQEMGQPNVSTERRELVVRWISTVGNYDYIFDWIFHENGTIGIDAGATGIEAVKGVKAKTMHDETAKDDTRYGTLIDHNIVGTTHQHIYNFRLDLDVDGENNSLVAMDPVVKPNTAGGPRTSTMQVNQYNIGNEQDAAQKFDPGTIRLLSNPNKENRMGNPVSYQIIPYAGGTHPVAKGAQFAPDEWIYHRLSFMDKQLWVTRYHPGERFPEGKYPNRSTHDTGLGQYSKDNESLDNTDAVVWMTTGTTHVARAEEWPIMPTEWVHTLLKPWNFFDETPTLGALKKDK

C=C1CCCCN1 = assay: purified protein; conditions: 20 mM Hepes-NaOH pH 7.0, 28 °C, O2 co-substrate, named as the enamine tautomer, treated in the paper as a cyclic imine
[5] = system: COc1ccc2c3c([nH]c2c1)C(C)=NCC3; assay: purified protein; conditions: 20 mM Hepes-NaOH pH 7.0, 28 °C, O2 co-substrate

Molecule: NNc1ccccc1 [phenylhydrazine]
- LC/MS/MS of chymotryptic nonapeptide; phenylhydrazine titration [1]: TPQ was also detected as a phenylhydrazine adduct in the nonapeptide

Molecule: NCc1ccccc1 [BA, benzylamine]
- resonance Raman and anaerobic UV-vis spectroscopy [2]: we observed a benzylamine adduct, which would be the inactive deprotonated imine intermediate, in HarA

Molecule: NCCc1c[nH]c2ccccc12 [tryptamine]
- LC/MS product detection [3]: D295E mutant catalyzed deamination of tryptamine, although the activity was less than that of wild-type

Molecule: COc1ccc2c3c([nH]c2c1)C(C)=NCC3 [harmaline]
- LC/MS or HPLC product detection [4]: The purified ECAO was able to convert harmaline into 2-AIMA

Molecule: HarA (harmaline-metabolizing enzyme, copper amine oxidase) (Arthrobacter sp.)
- Km (C=C1CCCCN1): 1700 µM
- Km [5]: 439 µM
